Our source for the GI50 values is US9624229B2, “Pyrimidine-2-amine compounds and their use as inhibitors of JAK kinases” (Rigel Pharmaceuticals, Inc., priority 2008, dated 2017).

This assay deals with Ba/F3 V617F cells (Homo sapiens, UniProt O60674, V617F, cells depend on it). Briefly: Proliferation assay (Cell Titer-Glo, 72 h) utilizing Ba/F3 V617F cells. The class given is cell-based, mouse. The settings on record: Ba/F3 V617F cells, proliferation, level of activity to inhibit JAK2, read-out: IC50 (the source's name). As for the experimental part: Ba/F3 V617F cells are maintained and plated in RPMI with 10% FBS. Plating density for these cells is 1×10^5 cells/mL.
Chain of Ba/F3 V617F cells (O60674 whole entry V617F): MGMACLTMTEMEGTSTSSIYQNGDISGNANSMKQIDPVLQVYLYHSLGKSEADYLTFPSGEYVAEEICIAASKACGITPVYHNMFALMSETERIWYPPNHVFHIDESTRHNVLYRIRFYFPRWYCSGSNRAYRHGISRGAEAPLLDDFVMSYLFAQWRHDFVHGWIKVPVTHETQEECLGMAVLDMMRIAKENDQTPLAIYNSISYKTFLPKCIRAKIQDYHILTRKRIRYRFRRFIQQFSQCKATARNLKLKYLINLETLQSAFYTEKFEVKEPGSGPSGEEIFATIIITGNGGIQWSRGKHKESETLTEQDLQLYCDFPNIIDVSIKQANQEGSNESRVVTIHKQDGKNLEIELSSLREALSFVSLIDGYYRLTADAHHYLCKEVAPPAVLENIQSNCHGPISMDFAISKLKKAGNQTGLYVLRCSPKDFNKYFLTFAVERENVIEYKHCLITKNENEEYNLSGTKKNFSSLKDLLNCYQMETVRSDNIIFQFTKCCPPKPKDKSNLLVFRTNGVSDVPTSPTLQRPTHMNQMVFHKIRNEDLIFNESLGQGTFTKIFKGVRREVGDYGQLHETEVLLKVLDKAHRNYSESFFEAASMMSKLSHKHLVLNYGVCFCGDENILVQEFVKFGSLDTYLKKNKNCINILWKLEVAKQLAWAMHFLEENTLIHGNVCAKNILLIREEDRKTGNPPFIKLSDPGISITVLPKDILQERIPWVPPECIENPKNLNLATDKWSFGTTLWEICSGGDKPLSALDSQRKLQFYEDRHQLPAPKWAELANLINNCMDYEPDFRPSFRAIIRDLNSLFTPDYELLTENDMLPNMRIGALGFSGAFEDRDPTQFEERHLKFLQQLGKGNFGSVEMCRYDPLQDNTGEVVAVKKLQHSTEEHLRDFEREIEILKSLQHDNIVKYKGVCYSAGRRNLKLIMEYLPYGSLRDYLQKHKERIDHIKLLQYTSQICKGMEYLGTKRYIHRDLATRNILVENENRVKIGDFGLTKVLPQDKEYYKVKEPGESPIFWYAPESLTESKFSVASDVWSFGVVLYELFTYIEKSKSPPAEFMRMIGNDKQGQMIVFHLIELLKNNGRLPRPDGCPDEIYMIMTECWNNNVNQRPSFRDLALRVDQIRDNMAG
The cells were resuspended in a corresponding medium at a required cell density (see above). 100μ of cell suspension was added to each well of a flat bottom 96 well white plate. The compound was serially diluted in DMSO from 5 mM in 3-fold dilutions, and then diluted 1:250 in the RPMI 1640 medium containing 5% FBS and pen/strep. 100 μL of resulting 2× compound solution was added per well in duplicate and the cells were allowed to proliferate for 72 hours at 37° C.
Proliferation was measured using Cell Titer-Glo. The substrate was thawed and allowed to come to ambient temperature. After removal of top 100 μL of medium from each well, 100 μL of the premixed Cell Titer-Glo reagent was added to each well. The plates were mixed on an orbital shaker for three minutes to induce lysis and incubated at ambient temperature for an additional five minutes to allow the signal to equilibrate. The Luminescence was read on the Wallac Plate Reader.
The results of the ability of the compounds of the invention to inhibit JAK2 activity, when tested in the above assay utilizing Ba/F3 V617F cells, are shown in the following Tables 2-3 wherein the level of activity (i.e., the IC50) for each compound is indicated in Tables 2-3. The compound numbers in Tables 2-3 refers to the compounds disclosed herein as being prepared by the methods disclosed herein: […]
Take `Cc1cc(Nc2nccc(-c3cnc4c(c3)OC(C)(C)C(=O)N4)n2)ccc1N1C[C@@H]2C[C@H]1CN2S(C)(=O)=O` [compound 29, 4-(2,2-dimethyl-3-oxo-3,4-dihydro-2H-pyrido[3,2-b][1,4]oxazin-7-yl)-N-(3-methyl-4-((1S,4S)-5-(methylsulfonyl)-2,5-diazabicyclo[2.2.1]heptan-2-yl)phenyl)pyrimidin-2-amine]: the GI50 was less than 1000 nM.
`CCN1C[C@@H]2C[C@H]1CN2c1ccc(Nc2nccc(-c3cnc4c(c3)OC(C)(C)C(=O)N4)n2)cc1C` [compound 30, 4-(2,2-dimethyl-3-oxo-3,4-dihydro-2H-pyrido[3,2-b][1,4]oxazin-7-yl)-N-(3-methyl-4-((1S,4S)-5-ethyl-2,5-diazabicyclo[2.2.1]heptan-2-yl)phenyl)pyrimidin-2-amine]: the GI50 was less than 1000 nM.
Turning to `Cc1cc(Nc2nccc(-c3cnc4c(c3)OC3(CCC3)C(=O)N4)n2)ccc1N1C[C@@H]2C[C@H]1CN2C` [compound 31, 4-(3′-oxo-3,4′-dihydrospiro[cyclobutane-1,2′-pyrido[3,2-b][1,4]oxazine]-7-yl)-N-(3-methyl-4-((1S,4S)-5-methyl-2,5-diazabicyclo[2.2.1]heptan-2-yl)phenyl)pyrimidin-2-amine], the GI50 is less than 1000 nM.
For the compound `CCN1C[C@@H]2C[C@H]1CN2c1ccc(Nc2nccc(-c3cnc4c(c3)OC3(CCC3)C(=O)N4)n2)cc1C` [compound 32, 4-(3′-oxo-3′,4′-dihydrospiro[cyclobutane-1,2′-pyrido[3,2-b][1,4]oxazine]-7′-yl)-N-(3-methyl-4-((1S,4S)-5-ethyl-2,5-diazabicyclo[2.2.1]heptan-2-yl)phenyl)pyrimidin-2-amine], the GI50 is less than 1000 nM.
In the case of `Cc1cc(Nc2nccc(-c3cnc4[nH]ccc4c3)n2)ccc1N1C[C@@H]2C[C@H]1CO2` [compound 33, 4-(1H-pyrrolo[2,3-b]pyridin-5-yl)-N-(3-methyl-4-((1S,4S)-5-oxa-2-azabicyclo[2.2.1]heptan-2-yl)phenyl)pyrimidin-2-amine], the GI50 is less than 1000 nM.
The figure for `Cc1cc(Nc2nccc(-c3cnc4[nH]ccc4c3)n2)ccc1N1C[C@@H]2C[C@H]1CN2CC(F)(F)F` [compound 34, 4-(1H-pyrrolo[2,3-b]pyridin-5-yl)-N-(3-methyl-4-((1S,4S)-5-(2,2,2-trifluoroethyl)-2,5-diazabicyclo[2.2.1]heptan-2-yl)phenyl)pyrimidin-2-amine] is less than 1000 nM; for `Cc1cc(Nc2nccc(-c3cnc4[nH]ccc4c3)n2)ccc1N1C[C@@H]2C[C@H]1CN2CC1CC1` [compound 35, 4-(1H-pyrrolo[2,3-b]pyridin-5-yl)-N-(3-methyl-4-((1S,4S)-5-(cyclopropyl)methyl-2,5-diazabicyclo[2.2.1]heptan-2-yl)phenyl)pyrimidin-2-amine] it is less than 1000 nM; for `Cc1cc(Nc2nccc(-c3ccc(N4CCOCC4)nc3)n2)ccc1N1C[C@@H]2C[C@H]1CN2CC(F)(F)F` [compound 36, 4-(6-(morpholin-4-yl)pyridin-3-yl)-N-(3-methyl-4-((1S,4S)-5-(2,2,2-trifluoroethyl)-2,5-diazabicyclo[2.2.1]heptan-2-yl)phenyl)pyrimidin-2-amine] it is 1000 to 10000 nM.
As for `Cc1cc(Nc2nccc(-c3ccc(N4CCOCC4)nc3)n2)ccc1N1C[C@@H]2C[C@H]1CN2CC1CC1` [compound 37, 4-(6-(morpholin-4-yl)pyridin-3-yl)-N-(3-methyl-4-((1S,4S)-5-(cyclopropyl)methyl-2,5-diazabicyclo[2.2.1]heptan-2-yl)phenyl)pyrimidin-2-amine], the GI50 was less than 1000 nM.
As for `Cc1cc(Nc2nccc(-c3cnc4c(c3)OC(C)(C)C(=O)N4)n2)ccc1N1C[C@@H]2C[C@H]1CN2S(N)(=O)=O` [compound 38, 4-(2,2-dimethyl-3-oxo-3,4-dihydro-2H-pyrido[3,2-b][1,4]oxazin-7-yl)-N-(3-methyl-4-((1S,4S)-5-(aminosulfonyl)-2,5-diazabicyclo[2.2.1]heptan-2-yl)phenyl)pyrimidin-2-amine], the GI50 is less than 1000 nM.
To `CN1C[C@@H]2C[C@H]1CN2c1ccc(Nc2nccc(-c3ccnc(N4CCOCC4)c3F)n2)cc1F` [compound 39, 4-(3-fluoro-2-(morpholin-4-yl)pyridin-4-yl)-N-(3-fluoro-4-((1S,4S)-5-methyl-2,5-diazabicyclo[2.2.1]heptan-2-yl)phenyl)pyrimidin-2-amine] belongs 1000 to 10000 nM; to `CN1C[C@@H]2C[C@H]1CN2c1ccc(Nc2nccc(-c3cnc(N4CCOCC4)nc3)n2)cc1` [compound 40, 4-(2-(morpholin-4-yl)pyrimidin-5-yl)-N-(4-((1S,4S)-5-methyl-2,5-diazabicyclo[2.2.1]heptan-2-yl)phenyl)pyrimidin-2-amine], 1000 to 10000 nM.
Consider `Cc1cc(Nc2nccc(-c3cnc(N4CCOCC4)nc3)n2)ccc1N1C[C@@H]2C[C@H]1CN2C` [compound 41, 4-(2-(morpholin-4-yl)pyrimidin-5-yl)-N-(3-methyl-4-((1S,4S)-5-methyl-2,5-diazabicyclo[2.2.1]heptan-2-yl)phenyl)pyrimidin-2-amine], for which the GI50 is less than 1000 nM.
`Cc1cc(Nc2nccc(-c3cnc(N4CCOCC4)nc3)n2)ccc1N1C[C@@H]2C[C@H]1CO2` [compound 42, 4-(2-(morpholin-4-yl)pyrimidin-5-yl)-N-(3-methyl-4-((1S,4S)-5-oxa-2-azabicyclo[2.2.1]heptan-2-yl)phenyl)pyrimidin-2-amine]: the GI50 was 1000 to 10000 nM.
Turning to `CN1C[C@@H]2C[C@H]1CN2c1ccc(Nc2nccc(-c3cnc(N4CCOCC4)nc3)n2)cc1F` [compound 43, 4-(2-(morpholin-4-yl)pyrimidin-5-yl)-N-(3-fluoro-4-((1S,4S)-5-methyl-2,5-diazabicyclo[2.2.1]heptan-2-yl)phenyl)pyrimidin-2-amine], the GI50 is less than 1000 nM.
On to `Cc1cc(Nc2nccc(-c3cnc(NC(=O)C4CC4)nc3)n2)ccc1N1C[C@@H]2C[C@H]1CN2C` [compound 44, 4-(2-((cyclopropyl)carbonylamino)-pyrimidin-5-yl)-N-(3-methyl-4-((1S,4S)-5-methyl-2,5-diazabicyclo[2.2.1]heptan-2-yl)phenyl)pyrimidin-2-amine], for which the GI50 was less than 1000 nM.
Turning to `Cc1cc(Nc2nccc(-c3ccc(C(=O)NC4=NCCS4)cc3)n2)ccc1N1C[C@@H]2C[C@H]1CN2C` [compound 45, 4-(4-(4,5-dihydrothiazol-2-ylcarbamoyl)phenyl)-N-(3-methyl-4-((1S,4S)-5-methyl-2,5-diazabicyclo[2.2.1]heptan-2-yl)phenyl)pyrimidin-2-amine], the GI50 was in the range of 1000 to 10000 nM.
Turning to `Cc1cc(Nc2nccc(-c3ccc(C(C)(C)C)cc3)n2)ccc1N1C[C@@H]2C[C@H]1CN2C` [compound 46, 4-(4-(1,1-dimethylethyl)phenyl)-N-(3-methyl-4-((1S,4S)-5-methyl-2,5-diazabicyclo[2.2.1]heptan-2-yl)phenyl)pyrimidin-2-amine], the GI50 is less than 1000 nM.
The figure for `CN1C[C@@H]2C[C@H]1CN2c1ccc(Nc2nccc(-c3ccc(N4CCOCC4)cc3)n2)cc1F` [compound 47, 4-(4-(morpholin-4-yl)phenyl)-N-(3-fluoro-4-((1S,4S)-5-methyl-2,5-diazabicyclo[2.2.1]heptan-2-yl)phenyl)pyrimidin-2-amine] is 1000 to 10000 nM; for `CNC(=O)Cc1ccc(-c2ccnc(Nc3ccc(N4C[C@@H]5C[C@H]4CN5C)c(C)c3)n2)cc1` [compound 48, 4-(4-((methyl)aminocarbonylmethyl)-phenyl)-N-(3-methyl-4-((1S,4S)-5-methyl-2,5-diazabicyclo[2.2.1]heptan-2-yl)phenyl)pyrimidin-2-amine] it is 1000 to 10000 nM.
Take `Cc1cc(Nc2nccc(-c3ccc(CC(=O)NC4CC4)cc3)n2)ccc1N1C[C@@H]2C[C@H]1CN2C` [compound 49, 4-(4-((cyclopropyl)aminocarbonyl-methyl)phenyl)-N-(3-methyl-4-((1S,4S)-5-methyl-2,5-diazabicyclo[2.2.1]heptan-2-yl)phenyl)pyrimidin-2-amine]: the GI50 lay within 1000 to 10000 nM.
Turning to `CNC(=O)c1ccc(-c2ccnc(Nc3ccc(N4C[C@@H]5C[C@H]4CN5C)c(C)c3)n2)cn1` [compound 50, 4-(6-(methylaminocarbonyl)pyridin-3-yl)-N-(3-methyl-4-((1S,4S)-5-methyl-2,5-diazabicyclo[2.2.1]heptan-2-yl)phenyl)pyrimidin-2-amine], the GI50 was less than 1000 nM.
Consider `Cc1cc(Nc2nccc(-c3cnc4c(c3)CCC(=O)N4)n2)ccc1N1C[C@@H]2C[C@H]1CN2C` [compound 51, 4-(7-oxo-5,6,7,8-tetrahydro-1,8-naphthyridin-3-yl)-N-(3-methyl-4-((1S,4S)-5-methyl-2,5-diazabicyclo[2.2.1]heptan-2-yl)phenyl)pyrimidin-2-amine], for which the GI50 was less than 1000 nM.
The figure for `Cc1cc(Nc2nccc(-c3cncc(C(=O)N4CCOCC4)c3)n2)ccc1N1C[C@@H]2C[C@H]1CN2C` [compound 52, 4-(5-((morpholin-4-yl)carbonyl)pyridin-3-yl)-N-(3-methyl-4-((1S,4S)-5-methyl-2,5-diazabicyclo[2.2.1]heptan-2-yl)phenyl)pyrimidin-2-amine] is less than 1000 nM.
